Patent publication EP2439188B1, “p-Menthane-3,8-diol derivatives and insect repellents comprising them” (priority 2010, dated 2012)
Where two headings read alike, the source gives them in different places.

What was measured:
[1] = system: Keratinozyten (SK-Mel-28); experiment: cells; format: cell-based; conditions: Homo sapiens, SK-MEL-28, SK-Mel-28; concentration at which 50 % of the cells die, relative to untreated control cells; read-out: Keratinocyten Zellen IC50
Source text: (§1) Hierzu wurden Zytotoxizitätsstudien an HeLa-Zellen und an Keratinozyten (SK-Mel-28) durchgeführt. Erstere Tests gelten als gute Alternative zu in vivo Draize Augenreizungstests, während letztere ein gutes Modell für die Hautkompatibilität sind.

Solubility in water = format: physicochemical
Source text: Tabelle 1 zeigt die Wasserlöslichkeit der erfindungsgemäßen Verbindung PMD-S (para-Menthane-3,8-diol Succinat) im Vergleich zu üblichen in Insektenschutzmitteln eingesetzten Wirkstoffen. Tabelle 1

HeLa-Zellen = experiment: cells; format: cell-based; conditions: Homo sapiens, concentration at which 50 % of the cells die, relative to untreated control cells
Source text: as §1

IC50 [1] [µM] | Löslichkeit in Wasser (Solubility in water; bei 25°C) [g/L bei 25 °C] | IC50 (HeLa-Zellen) [µM] | Löslichkeit in Wasser (Solubility in water) | SMILES | Löslichkeit in Wasser (Solubility in water; bei 20°C) [g/L bei 20 °C]
14.2 ± 5.23 | 0.29 | – | – | CC1CCC(C(C)(C)O)C(O)C1 (stereo not drawn) [PMD, para-Menthan-3,8-diol] | –
8.1 ± 3.41 | – | 12.4 ± 1.89 | 1 g/L bei 25 °C | CCN(CC)C(=O)c1cccc(C)c1 [DEET, N,N-Diethyl-m-methylbenzamid] | –
– | – | – | – | CC[C@@H](C)OC(=O)N1CCCC[C@@H]1CCO (racemic) [KBR 3023, (RS)-sec-butyl-(RS)-2-(2hydroxyethyl) piperidine-1-carboxylat] | 8.2
17.5 ± 2.76 | – | 12.5 ± 1.17 | 70 g/L bei 20 °C | CCCCN(CCC(=O)OCC)C(C)=O [IR 3535, Ethyl-3-[(acetyl)(butyl)amino]propanoat] | –
